Measured values as given in patent publication US10286063B2 (priority 2015, dated 2019).

Tested on: PBMC
Assay type: cell-based, human

RGILKRNSSSSSTDS [Peptide 5-HUMAN-B, reference compound]
% Inhibition by HLA-DR blocking Ab: 100%
